Tests used:
[1] = Cytotoxicity against human HeLa cells expressing CD4, CCR5 after 3 days; type: cell-based; conditions: HeLa cells expressing CD4 and CCR5
[2] = system: Human immunodeficiency virus 1; test: Antiviral activity against HIV1 JR-FL in human HeLa cells expressing CD4, CCR5 assessed as inhibition of integration of viral DNA into cell genome after 3 days by luciferase reporter gene assay; type: functional, organism-based; conditions: Human immunodeficiency virus 1, JR-FL, 72 h
Rattus norvegicus [3] = test: Oral bioavailability in rat at 5 mg/kg; type: ADME, organism-based; conditions: in vivo
Rattus norvegicus [4] = test: (§1) AUC in rat at 5 mg/kg, po; type: ADME, organism-based, Plasma; parameters: dose 5 mg/kg, route oral; conditions: in vivo
[5] = as §1; type: ADME, organism-based, Plasma; parameters: dose 5 mg/kg, route oral; conditions: plasma

Row | Compound | CC50 at 72 h [1] [nM] | EC50 [2] [nM] | F (Rattus norvegicus [3]) [%] | AUC (Rattus norvegicus [4]) [µM·h] | AUC [5] [µM·h]
1 | O=C(C(=O)N1CCN(C(=O)c2ccccc2)CC1)c1c[nH]c2c(-c3ncco3)ccnc12 | > 300000 | 0.39 | – | – | –
2 | Cc1cnn(-c2ccnc3c(C(=O)C(=O)N4CCN(C(=O)c5ccccc5)[C@H](C)C4)c[nH]c23)c1 | > 150000 | 1.59 | – | – | –
3 | C[C@@H]1CN(C(=O)C(=O)c2c[nH]c3c(-n4nc5ccccc5n4)ccnc23)CCN1C(=O)c1ccccc1 | 74000 | 0.31 | – | – | –
4 | C[C@@H]1CN(C(=O)C(=O)c2c[nH]c3c(-n4nnc5ccccc54)ccnc23)CCN1C(=O)c1ccccc1 | 71000 | 5.34 | – | – | –
5 | Cc1ncn(-c2ccnc3c(C(=O)C(=O)N4CCN(C(=O)c5ccccc5)[C@H](C)C4)c[nH]c23)n1 | > 300000 | 0.59 | – | – | –
6 | Cc1ncnn1-c1ccnc2c(C(=O)C(=O)N3CCN(C(=O)c4ccccc4)[C@H](C)C3)c[nH]c12 | > 300000 | 10.8 | – | – | –
7 | O=C(C(=O)N1CCN(C(=O)c2ccccc2)CC1)c1c[nH]c2c(-n3nc4ccccc4n3)ccnc12 | 124000 | 0.21 | – | – | –
8 | O=C(C(=O)N1CCN(C(=O)c2ccccc2)CC1)c1c[nH]c2c(-n3nnc4ccccc43)ccnc12 | 246000 | 23.6 | – | – | –
9 | O=C(C(=O)N1CCN(C(=O)c2ccccc2)CC1)c1c[nH]c2c(-n3nnc4cccnc43)ccnc12 | > 300000 | 10.6 | – | – | –
10 | C[C@@H]1CN(C(=O)C(=O)c2c[nH]c3c(Cl)ccnc23)CCN1C(=O)c1ccccc1 | 300000 | 11.6 | – | – | –
11 | C[C@@H]1CN(C(=O)C(=O)c2c[nH]c3c(-c4cccs4)ccnc23)CCN1C(=O)c1ccccc1 | 168000 | 0.24 | – | – | –
12 | Cc1csc(-c2ccnc3c(C(=O)C(=O)N4CCN(C(=O)c5ccccc5)[C@H](C)C4)c[nH]c23)c1 | 123000 | 0.21 | – | – | –
13 | C[C@@H]1CN(C(=O)C(=O)c2c[nH]c3c(-c4ncco4)ccnc23)CCN1C(=O)c1ccccc1 | 135000 | 0.34 | 60 | 5.6 | –
14 | C[C@@H]1CN(C(=O)C(=O)c2c[nH]c3c(-c4nccs4)ccnc23)CCN1C(=O)c1ccccc1 | 35000 | 0.31 | 41 | 1.3 | –
15 | Cc1cnc(-c2ccnc3c(C(=O)C(=O)N4CCN(C(=O)c5ccccc5)[C@H](C)C4)c[nH]c23)s1 | 28000 | 0.71 | – | – | –
16 | Cc1csc(-c2ccnc3c(C(=O)C(=O)N4CCN(C(=O)c5ccccc5)[C@H](C)C4)c[nH]c23)n1 | 30000 | 0.19 | – | – | –
17 | C[C@@H]1CN(C(=O)C(=O)c2c[nH]c3c(-n4nccn4)ccnc23)CCN1C(=O)c1ccccc1 | 300000 | 0.44 | 78 | 3.3 | –
18 | Cc1ccn(-c2ccnc3c(C(=O)C(=O)N4CCN(C(=O)c5ccccc5)[C@H](C)C4)c[nH]c23)n1 | 300000 | 0.46 | – | – | –
19 | O=C(C(=O)N1CCN(C(=O)c2ccccc2)CC1)c1c[nH]c2c(-c3ccccn3)ccnc12 | 231000 | 0.93 | – | – | –
20 | O=C(C(=O)N1CCN(C(=O)c2ccccc2)CC1)c1c[nH]c2c(-c3cnccn3)ccnc12 | > 300000 | 1.71 | – | – | –
21 | COc1cccc(-c2ccnc3c(C(=O)C(=O)N4CCN(C(=O)c5ccccc5)CC4)c[nH]c23)n1 | 174000 | 7.4 | – | – | –

Row | Compound | CC50 at 72 h [1] [nM] | EC50 [2] [nM] | F (Rattus norvegicus [3]) [%] | AUC (Rattus norvegicus [4]) [µM·h] | AUC [5] [µM·h]
22 | O=C(C(=O)N1CCN(C(=O)c2ccccc2)CC1)c1c[nH]c2c(-n3nccn3)ccnc12 | > 300000 | 0.32 | 65 | 9.6 | –
23 | O=C(C(=O)N1CCN(C(=O)c2ccccc2)CC1)c1c[nH]c2c(-n3cncn3)ccnc12 | > 300000 | 0.64 | – | – | –
24 | O=C(C(=O)N1CCN(C(=O)c2ccccc2)CC1)c1c[nH]c2c(-n3ccnn3)ccnc12 | > 300000 | 0.88 | – | – | –
25 | O=C(C(=O)N1CCN(C(=O)c2ccccc2)CC1)c1c[nH]c2c(-n3cccn3)ccnc12 | > 300000 | 0.89 | – | – | –
26 | O=C(C(=O)N1CCN(C(=O)c2ccccc2)CC1)c1c[nH]c2c(Cl)ccnc12 | > 300000 | 18.4 | – | – | –
27 | COc1ccnc2c(C(=O)C(=O)N3CCN(C(=O)c4ccccc4)CC3)c[nH]c12 | > 300000 | 12.3 | – | – | –
28 | Cc1csc(-c2ccnc3c(C(=O)C(=O)N4CCN(C(=O)c5ccccc5)CC4)c[nH]c23)c1 | 85000 | 0.02 | – | – | –
29 | CC(=O)c1ccc(-c2ccnc3c(C(=O)C(=O)N4CCN(C(=O)c5ccccc5)CC4)c[nH]c23)s1 | 268000 | 0.29 | – | – | –
30 | O=C(C(=O)N1CCN(C(=O)c2ccccc2)CC1)c1c[nH]c2c(-c3nccs3)ccnc12 | 150000 | 0.21 | – | – | –
31 | O=C(C(=O)N1CCN(C(=O)c2ccccc2)CC1)c1c[nH]c2c(-c3cncs3)ccnc12 | > 300000 | 0.09 | – | – | –
32 | Cc1csc(-c2ccnc3c(C(=O)C(=O)N4CCN(C(=O)c5ccccc5)CC4)c[nH]c23)n1 | 23000 | 0.2 | – | – | –
33 | Cc1cnc(-c2ccnc3c(C(=O)C(=O)N4CCN(C(=O)c5ccccc5)CC4)c[nH]c23)s1 | 251000 | 0.52 | – | – | –
34 | CNC(=O)c1ccnc2c(C(=O)C(=O)N3CCN(C(=O)c4ccccc4)C[C@H]3C)c[nH]c12 | > 300000 | 2.48 | – | – | –
35 | COc1ccnc2c(C(=O)C(=O)N3CCN(C(=O)c4ccccc4)C[C@H]3C)c[nH]c12 | > 300000 | 0.63 | – | – | –
36 | COc1ccnc2c(C(=O)C(=O)N3CCN(C(=O)c4ccccc4)C[C@H]3C)cn(C)c12 | > 300000 | 7.37 | – | – | –
37 | COc1ccc(-c2ccnc3c(C(=O)C(=O)N4CCN(C(=O)c5ccccc5)C[C@H]4C)c[nH]c23)cc1 | > 300000 | 0.32 | – | – | –
38 | C[C@@H]1CN(C(=O)c2ccccc2)CCN1C(=O)C(=O)c1c[nH]c2c(-c3cncnc3)ccnc12 | 35300 | 0.68 | – | – | –
39 | C[C@@H]1CN(C(=O)c2ccccc2)CCN1C(=O)C(=O)c1c[nH]c2c(-c3cnccn3)ccnc12 | 15300 | 0.27 | – | – | –
40 | C[C@@H]1CN(C(=O)c2ccccc2)CCN1C(=O)C(=O)c1c[nH]c2c(C(=O)Nc3nccs3)ccnc12 | > 300000 | 0.43 | – | – | –
41 | Cc1csc(NC(=O)c2ccnc3c(C(=O)C(=O)N4CCN(C(=O)c5ccccc5)C[C@H]4C)c[nH]c23)n1 | > 300000 | 3.4 | – | – | –
42 | CON(C)C(=O)c1ccnc2c(C(=O)C(=O)N3CCN(C(=O)c4ccccc4)C[C@H]3C)c[nH]c12 | > 300000 | 61.1 | – | – | –

Row | Compound | CC50 at 72 h [1] [nM] | EC50 [2] [nM] | F (Rattus norvegicus [3]) [%] | AUC (Rattus norvegicus [4]) [µM·h] | AUC [5] [µM·h]
43 | C[C@@H]1CN(C(=O)c2ccccc2)CCN1C(=O)C(=O)c1c[nH]c2c(-c3cccs3)ccnc12 | > 300000 | 0.02 | – | – | –
44 | C[C@@H]1CN(C(=O)c2ccccc2)CCN1C(=O)C(=O)c1c[nH]c2c(-c3ccsc3)ccnc12 | 94500 | 0.18 | – | – | –
45 | C[C@@H]1CN(C(=O)c2ccccc2)CCN1C(=O)C(=O)c1c[nH]c2c(-c3cc4ccccc4s3)ccnc12 | 170000 | 0.1 | – | – | –
46 | Cc1csc(-c2ccnc3c(C(=O)C(=O)N4CCN(C(=O)c5ccccc5)C[C@H]4C)c[nH]c23)c1 | 48900 | 0.04 | – | – | –
47 | C[C@@H]1CN(C(=O)c2ccccc2)CCN1C(=O)C(=O)c1c[nH]c2c(-c3nccs3)ccnc12 | > 300000 | 0.1 | – | – | –
48 | C[C@@H]1CN(C(=O)c2ccccc2)CCN1C(=O)C(=O)c1c[nH]c2c(-c3ncco3)ccnc12 | > 300000 | 0.18 | – | – | –
49 | Cc1noc(C)c1-c1ccnc2c(C(=O)C(=O)N3CCN(C(=O)c4ccccc4)C[C@H]3C)c[nH]c12 | > 300000 | 1.05 | – | – | –
50 | Cc1ccnc2c(C(=O)C(=O)N3CCN(C(=O)c4ccccc4)CC3)c[nH]c12 | > 300000 | 46.3 | – | – | –
51 | COc1cncc2[nH]cc(C(=O)C(=O)N3CCN(C(=O)c4ccccc4)C[C@H]3C)c12 | 6000 | 1.3 | – | – | –
52 | C[C@@H]1CN(C(=O)c2ccccc2)CCN1C(=O)C(=O)c1c[nH]c2c(Cl)ccnc12 | > 300000 | 1.22 | – | – | –
53 | Cc1ccnc2c(C(=O)C(=O)N3CCN(C(=O)c4ccccc4)C[C@H]3C)c[nH]c12 | > 300000 | 3.06 | – | – | –
54 | C[C@@H]1CN(C(=O)c2ccccc2)CCN1C(=O)C(=O)c1c[nH]c2c(C(=O)O)ccnc12 | > 300000 | 3.38 | – | – | –
55 | COc1ccnc2[nH]cc(C(=O)C(=O)N3CCN(C(=O)c4ccccc4)C[C@H]3C)c12 | > 300000 | 1 | – | – | 1.3
56 | C[C@@H]1CN(C(=O)c2ccccc2)CCN1C(=O)C(=O)c1c[nH]c2ncccc12 | 280000 | 1.7 | – | – | –
57 | C[C@@H]1CN(C(=O)c2ccccc2)CCN1C(=O)C(=O)c1c[nH]c2ccccc12 | 195000 | 4.9 | – | – | –
58 | COc1cccc2[nH]cc(C(=O)C(=O)N3CCN(C(=O)c4ccccc4)C[C@H]3C)c12 | 250000 | 0.8 | – | – | –
59 | C[C@@H]1CN(C(=O)c2ccccc2)CCN1C(=O)C(=O)c1c[nH]c2cnccc12 | > 300000 | 22 | – | – | –
60 | C[C@@H]1CN(C(=O)c2ccccc2)CCN1C(=O)C(=O)c1c[nH]c2cccnc12 | > 300000 | 1.6 | – | – | –
61 | C[C@@H]1CN(C(=O)c2ccccc2)CCN1C(=O)C(=O)c1c[nH]c2ccncc12 | > 300000 | 580 | – | – | –
